In patent US7943641B2, “7-((1H-imidazol-4-yl)methyl)-5,6,7,8-tetrahydroquinoline” (Allergan, Inc., priority 2006, dated 2011):
Structures can show the parent of a compound that is named as a salt.

Columns and labels:
α2A adrenergic receptor = target: T1, α2A adrenergic receptor (Homo sapiens, UniProt P08913); assay: RSAT (Receptor Selection and Amplification Technology) assay, α2A; type: cell-based; conditions: NIH-3T3 cells cotransfected with receptor and G protein
T1 construct: expressed in transfected cells; host or cells: NIH-3T3 cells
T1 sequence (P08913 1-465): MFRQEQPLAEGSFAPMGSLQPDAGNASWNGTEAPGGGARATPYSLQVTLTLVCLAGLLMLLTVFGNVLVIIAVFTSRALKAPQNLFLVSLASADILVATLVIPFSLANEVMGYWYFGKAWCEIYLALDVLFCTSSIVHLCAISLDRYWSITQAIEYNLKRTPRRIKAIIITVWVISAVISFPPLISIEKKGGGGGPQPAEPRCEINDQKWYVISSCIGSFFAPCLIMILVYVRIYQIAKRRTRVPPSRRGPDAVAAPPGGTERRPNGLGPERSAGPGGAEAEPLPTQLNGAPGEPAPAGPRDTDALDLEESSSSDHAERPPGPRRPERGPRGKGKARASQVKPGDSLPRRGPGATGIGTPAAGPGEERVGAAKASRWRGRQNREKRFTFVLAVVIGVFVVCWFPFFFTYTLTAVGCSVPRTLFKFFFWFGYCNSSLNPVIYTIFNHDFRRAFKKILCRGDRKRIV
Method: Incubations continue 72-96 hr at 37° C.

[1] = system: IOP in the hypertensive eye; assay: Telemetry IOP model (telemetrized primate model); type: in vivo, Cynomolgus monkeys (macaca fascicularis)
Method: Cynomolgus (macaca fascicularis) monkeys weighing 3-5 kg with unilateral ocular hypertension in the right eye (OD) are used. Sustained elevated IOP is created by circumferential argon laser photocoagulation (Zeiss Visulas 532) of the mid-trabecular meshwork according to the method of Gaasterland and Kupfer (5). IOPs are assessed at T=−0.1, 0, 1, 2, 4, and 6, hours with an optional reading at 24 hours using an applanation pneumatonometer (Model 30 Classic, mentor Co). A drop of proparacaine (Allergan, Inc.) is instilled into the eyes just prior to IOP measurements. Monkeys are chaired and conditioned for tonometry for months before initiation of the study. Results are averaged from the 2 hr to the 6 hr time points (averages for each animal are calculated and the group mean determined) in an effort to simplify and standardize the data and include a comparison of sustained responses. Depending on the design of the study, either a paired or unpaired Student's t test is done. P<0.05 is considered significant.
Telemetry IOP model. Cynomolgus monkeys (3-5 kg) are made unilaterally ocular hypertensive by argon laser as noted above. The telemetry implant procedure is performed following elevation of IOP. Briefly, the scalp is prepared for aseptic surgery, followed by a 4 cm incision and tissue blunt-dissection to form a pocket in the underlying fascia to contain the pressure transducer. The catheter from the transducer is then guided subcutaneously to the orbit, and inserted into the vitreous cavity of the glaucoma eye through a small opening in the pars plana which is sutured closed and fixed with tissue adhesive. Receivers are placed into the animal cages and connected to a computer running Dataquest software for data capture. Animals are housed in a 12 hours light, 12 hours dark cycle: 6:00 AM ON, 6:00 PM OFF. Animals are used in drug studies following recovery from the surgical procedure which takes 2 weeks to 1 month. Dosing is done by transferring animals to restraining chairs. Animals are dosed without the aid of a sedative. […]

Compound | EC50 (α2A adrenergic receptor) [nM] | % IOP decrease from baseline in the hypertensive eye ([1]; dose 0.30%) [%] | % IOP decrease from baseline in the hypertensive eye ([1]; dose 0.15%) [%]
c1cnc2c(c1)CCC(Cc1c[nH]cn1)C2 (racemic) [racemic mixture, 7-(1H-Imidazol-4-ylmethyl)-5,6,7,8-tetrahydro-quinoline dihydrochloride] | 3.9 | 30 | –
c1cnc2c(c1)CCC(Cc1c[nH]cn1)C2 (single isomer, unassigned; (+)) [(+) enantiomer, (+)-7-(1H-imidazol-4-ylmethyl)-5,6,7,8-tetrahydro-quinoline dihydrochloride] | 2.9 | – | 30
c1cnc2c(c1)CCC(Cc1c[nH]cn1)C2 (single isomer, unassigned; (-)) [(−) enantiomer, (−) 7-((1H-imidazol-4-yl)methyl)-5,6,7,8-tetrahydroquinoline] | 58.4 | 0 | –
